Patent US7803793B2, “Heterocyclic derived metalloprotease inhibitors” (Janssen Pharmaceutica NV, priority 2006, dated 2010)
Where two headings read alike, the source gives them in different places.

Columns and labels:
[1] = target: T1, MMP-9 (Homo sapiens, UniProt P14780); experiment: MMP enzymatic assay (Trupoint peptide), MMP-9; type: biochemical
T1 construct: Human MMP-9 catalytic domain (aa 107-446)
Protocol: [formula] • 1) Prepare appropriate 1×MMP assay buffer from 10× stock. […] The plate setup should be as follows, using GM6001 as plate reference compound:
• 6) Serially dilute 10 μl down the plate to achieve 1:3 dilutions in subsequent wells. After each dilution, change pipette tips to avoid compound carryover. […] Will need 10 ml enzyme solution per plate. Add enzyme to plate, 20 μl per well. Incubate 1 hr.
Prepare 5 ml total per plate. Add 10 ul of substrate to each well to achieve a final concentration of 100 nM in well. […] Read in plate reader.
(§1) Analysis Specifications • Calculate average background value from substrate/assay buffer wells • Subtract this from entire plate • Calculate average of DMSO wells for each enzyme. This is the positive control, 100% value. • For each well, calculate percent of control by dividing well value by the average DMSO value obtained above. • Paste percent of control values into Graphpad Prism 4.0.

[2] = target: T2, MMP-2 (Homo sapiens, UniProt P08253); experiment: MMP enzymatic assay (Trupoint peptide), MMP-2; type: biochemical
T2 construct: Human MMP-2 full length (aa 1-660)
T2 sequence (P08253 30-660): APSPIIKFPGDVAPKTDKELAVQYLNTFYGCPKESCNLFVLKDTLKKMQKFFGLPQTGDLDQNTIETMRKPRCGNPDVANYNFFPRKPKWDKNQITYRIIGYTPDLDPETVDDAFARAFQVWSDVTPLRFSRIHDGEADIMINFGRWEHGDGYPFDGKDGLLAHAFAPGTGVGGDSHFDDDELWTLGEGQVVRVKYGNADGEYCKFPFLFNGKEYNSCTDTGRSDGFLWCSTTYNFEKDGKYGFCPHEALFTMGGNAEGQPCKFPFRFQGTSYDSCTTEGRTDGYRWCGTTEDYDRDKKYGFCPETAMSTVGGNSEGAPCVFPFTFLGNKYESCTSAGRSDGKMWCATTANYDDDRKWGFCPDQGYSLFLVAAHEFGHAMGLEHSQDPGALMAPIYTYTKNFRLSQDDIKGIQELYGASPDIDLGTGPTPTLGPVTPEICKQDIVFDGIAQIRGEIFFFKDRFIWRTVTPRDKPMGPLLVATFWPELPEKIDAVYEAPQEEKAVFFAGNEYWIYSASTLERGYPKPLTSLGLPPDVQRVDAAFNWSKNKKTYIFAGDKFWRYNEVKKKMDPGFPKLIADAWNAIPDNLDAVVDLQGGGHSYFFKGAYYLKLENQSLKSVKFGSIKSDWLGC
Protocol: [formula] • 1) Prepare appropriate 1×MMP assay buffer from 10× stock. […] Need to prepare a 2.5× concentration stock (2.5 μM) to achieve this concentration in 50 μl. Dilute compound to 2.5 mM in 100% DMSO (a 1:40 dilution), then dilute the 2.5 mM compound to 2.5 μM (1:1000) into 1× assay buffer. Make 1 ml 2.5 μM compound in assay buffer. • 4) Fill the rows B through P of a 384-well plate with assay buffer+0.1% DMSO. • 5) Add 30 ul of the 2.5 μM compound in assay buffer to the top row of the plate, doing each compound in triplicate. The plate setup should be as follows, using GM6001 as plate reference compound:
• 6) Serially dilute 10 μl down the plate to achieve 1:3 dilutions in subsequent wells. After each dilution, change pipette tips to avoid compound carryover. Discard the remaining 10 μl after diluting into the final row. • 7) Prepare enzyme dilutions at 2.5× of final desired concentration (see below). Will need 10 ml enzyme solution per plate. Add enzyme to plate, 20 μl per well. Incubate 1 hr.
• 8) Dilute the 500 μM Trupoint peptide 1:1000 into assay buffer to achieve a 5× working stock of 500 nM. Prepare 5 ml total per plate. Add 10 ul of substrate to each well to achieve a final concentration of 100 nM in well. Also prepare background subtraction wells by adding 10 μl 5× substrate to 40 μl assay buffer per well, typically do ˜32 wells. • 9) Incubate assay at room temperature for 15 min. Read in plate reader.
as §1

T1 sequence (P14780 107-446): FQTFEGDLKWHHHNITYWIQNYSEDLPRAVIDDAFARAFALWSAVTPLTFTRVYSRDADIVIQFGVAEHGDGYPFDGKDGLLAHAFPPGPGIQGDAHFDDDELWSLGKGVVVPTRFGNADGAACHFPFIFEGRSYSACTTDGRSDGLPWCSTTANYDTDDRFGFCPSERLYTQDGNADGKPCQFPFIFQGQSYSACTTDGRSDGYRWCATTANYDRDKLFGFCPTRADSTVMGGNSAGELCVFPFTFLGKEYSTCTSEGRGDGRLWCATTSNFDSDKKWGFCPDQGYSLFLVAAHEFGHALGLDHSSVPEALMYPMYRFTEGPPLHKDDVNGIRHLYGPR

Compound	IC50 [1] [nM]	IC50 [2] [nM]	IC50 ([2]; read-out: MMP-2 nM IC50) [nM]
CN(c1cccn(O)c1=O)S(=O)(=O)c1ccc(-c2ccc(Cl)cc2)cc1 [Compound 36, 4′-Chloro-biphenyl-4-sulfonic acid (1-hydroxy-2-oxo-1,2-dihydro-pyridin-3-yl)-methyl-amide]	1800	1300	
O=C1C(S(=O)(=O)c2ccc(-c3nc4cc(F)ccc4[nH]3)cc2)CCCCN1O (centres unmarked) [Compound 78, 3-[4-(5-Fluoro-1H-benzoimidazol-2-yl)-benzenesulfonyl]-1-hydroxy-azepan-2-one]	846		377
O=c1c(O)cccn1CS(=O)(=O)c1ccc(Br)cc1 [Compound 65, 1-(4-Bromo-benzenesulfonylmethyl)-3-hydroxy-1H-pyridin-2-one]	> 1000	> 1000	
1-Hydroxy-3-(4′-trifluoromethoxy-biphenyl-4-sulfonyl)-azepan-2-one [Compound 85]	> 1000		> 1000
O=C1[C@H](N(CCN2CCOCC2)S(=O)(=O)c2ccc(Br)s2)CC=CCN1O [Compound 18, (R)-5-Bromo-thiophene-2-sulfonic acid (1-hydroxy-2-oxo-2,3,4,7-tetrahydro-1H-azepin-3-yl)-(2-morpholin-4-yl-ethyl)-amide]	14.3	48.1	
Cc1ccc(-c2ccc(S(=O)(=O)N[C@@H]3CC=CCN(O)C3=O)s2)cc1 [Compound 90]	8.6	4.2	
COc1ccc(-c2ccc(S(=O)(=O)Cn3cccc(O)c3=O)cc2)cc1 [Compound 67, 3-Hydroxy-1-(4′-methoxy-biphenyl-4-sulfonylmethyl)-1H-pyridin-2-one]	> 10000	> 10000	

Second part, led by results:

IC50 [1] [nM]	IC50 [2] [nM]	Compound	IC50 ([2]; read-out: MMP-2 nM IC50) [nM]
0.68	0.72	CC1=CC[C@@H](NS(=O)(=O)c2ccc(Oc3ccc(Cl)cc3)cc2)C(=O)N(O)C1 [Compound 20, (R)-4-(4-Chloro-phenoxy)-N-(1-hydroxy-6-methyl-2-oxo-2,3,4,7-tetrahydro-1H-azepin-3-yl)-benzenesulfonamide]	
1.32	1.99	CN([C@@H]1CC=CCN(O)C1=O)S(=O)(=O)c1ccc(Oc2ccc(Cl)cc2)cc1 [Compound 12, 4-(4-Chloro-phenoxy)-N-(1-hydroxy-2-oxo-2,3,4,7-tetrahydro-1H-azepin-3-(R)-yl)-N-methyl-benzenesulfonamide]	
4.84		O=C(CN(c1cccn(O)c1=O)S(=O)(=O)c1ccc(Oc2ccc(Cl)cc2)cc1)N1CCOCC1 [Compound 35, 4-(4-Chloro-phenoxy)-N-(1-hydroxy-2-oxo-1,2-dihydro-pyridin-3-yl)-N-(2-morpholin-4-yl-2-oxo-ethyl)-benzenesulfonamide]	4.93
30.6	46.7	O=C1[C@H](CS(=O)(=O)c2ccc(Oc3ccccc3)cc2)NCCCN1O [Compound 69, (3R)-1-Hydroxy-3-(4-phenoxy)benzenesulfonylmethyl-1,4-diazepan-2-one]	
44.4	110	O=C1C(S(=O)(=O)c2ccc(Oc3ccc(OC(F)(F)F)cc3)cc2)CCCCN1O (centres unmarked) [Compound 71, 1-Hydroxy-3-[4-(4-trifluoromethoxy-phenoxy)-benzenesulfonyl]-azepan-2-one]	
> 1000	> 1000	O=c1c(NS(=O)(=O)c2ccc(-c3ccc(Cl)cc3)cc2)cccn1O [Compound 40, 4′-Chloro-biphenyl-4-sulfonic acid (1-hydroxy-2-oxo-1,2-dihydro-pyridin-3-yl)-amide]	
5.9	3.7	O=C1C(NS(=O)(=O)c2ccc(Oc3ccc(Cl)cc3)cc2)CCCCN1O (centres unmarked) [Compound 92]	
1140	68.6	O=C1[C@H](NS(=O)(=O)c2ccc(-c3ccc(Cl)cc3)cc2)CC=CCN1O [Compound 2, 4′-Chloro-biphenyl-4-sulfonic acid (1-hydroxy-2-oxo-2,3,4,7-tetrahydro-1H-azepin-3-(R)-yl)-amide]	
> 1000	> 1000	O=C1C(S(=O)(=O)c2ccc(-c3ccccc3)cc2)CCCCN1O (centres unmarked) [Compound 83, 3-(Biphenyl-4-sulfonyl)-1-hydroxy-azepan-2-one]	
